Consider 1 compound from EP0808626A1, “Use of acetyl-L-carnitine for the treatment of presenile Alzheimer's disease” (Sigma-Tau Industrie Farmaceutiche Riunite S.p.A., priority 1996, dated 1997).

For series [1] the following is noted: stated to justify doses larger than 1 to 4 g/day; cited from earlier work.
For series [2], the system named is early-onset AD patients. As to the kind of experiment: Double-blind, randomized, placebo-controlled trials with cognitive and functional clinical rating scales. The series is classed as in vivo. The settings on record: "efficacy" population. As for the experimental part:
For the purposes of assessing the clinical efficacy of acetyl L-carnitine in early-onset AD patients. 8 different parallel-group, double-blind, randomized, placebo-controlled trials in which acetyl L-carnitine was administered chronically by mouth to subjects suffering from early-onset (before age 65) or late-onset (after age 65) Alzheimer's disease were pooled and assessed as a whole.
Acetyl L-carnitine or placebo were administered at doses ranging from 2 to 3 g/day in the different studies. All patients recruited into these trials had diagnoses of probable Alzheimer's disease according to the criteria laid down by the DSM-III-R and the NINCDS-ADRDA; for recruitment patients had to have a Hachinski Ischemic Score of 4 points or less and no CT or NMR findings indicative of cerebral lesions other than those typical of Alzheimer's disease.
A total of 834 patients were recruited into the 8 trials considered. Of these, 140 (16.8%) were suffering from early-onset AD (before 65 years of age according to the DSM-IV definition). The criterion adopted to identity these patients as early-onset was their actual age at the time of recruitment into the study.
In the 8 trials considered, the progression of Alzheimer's disease was assessed on the basis of cognitive clinical rating scales (cognitive section of the Alzheimer's Disease Assessment Scale [ADAS-Cog]; MMSE - Mini Mental State Examination; BIMC - Blessed Information Memory Concentration) and functional or global clinical scales (CDR - Clinical Dementia Rating Scale; BDS - Blessed Dementia Scale; CGI-S and -C - Clinical Global Impression of Severity and Change) according to the scientific criteria indicated and approved by the various international regulatory authorities.

[3] abbreviates: study ST-901, Functional, oral 3 g/day, 12 months.
Setting [4] is: study ST-88102, Cognitive, oral 2-3 g/day, 44 weeks.
The mark [5] stands for this setting: study ST-88102, Functional, oral 2-3 g/day, 44 weeks.
Setting [6] is: the 5 studies of 6 months, Functional, oral.

Regarding `CC(=O)O[C@H](CC(=O)[O-])C[N+](C)(C)C` [Acetyl L-carnitine, acetyl L-carnitine], the toxicity entry in series [1] is reported as “substantial non-toxicity”. The “BIMC, mean change in final value at 6-12 months compared to baseline” value in series [2] (study DRN2-006, Cognitive, oral 2 g/day, 12 months) is given as -3.5. In addition, in series [2] (study DRN2-006, Functional, oral 2 g/day, 12 months), the “BDS, mean change in final value at 6-12 months compared to baseline” value is 0.4. In series [2] (setting [3]), the “CDR, mean change in final value at 6-12 months compared to baseline” value was 1.9; the “CGI-C, mean change in final value at 6-12 months compared to baseline” value (from here on “CGI-C, mean change in final value”) came out at 4.5; the “CGI-S, mean change in final value at 6-12 months compared to baseline” value (from here on “CGI-S, mean change in final value”) was found to be 0.3. Also, in series [2] (setting [4]), the “ADAS-Cog, mean change in final value at 6-12 months compared to baseline” value was 4.7 and the “MMSE, mean change in final value at 6-12 months compared to baseline” value is recorded as -2.1. In series [2] (setting [5]), the “BDS, mean change in final value at 6-12 months compared to baseline” value stood at 1.2; the “CGI-C, mean change in final value” value is reported as 4.4; the “CGI-S, mean change in final value” value is given as 0.0. The “MMSE, mean change in final value at 6-12 months compared to baseline” value in series [2] (the 5 studies of 6 months, Cognitive, oral) is -0.7. In addition, in series [2] (setting [6]), the “CGI-C, mean change in final value” value worked out at 4.3 and the “CGI-S, mean change in final value” value worked out at 0.2.
